Test results reported in US8653263B2 (Janssen Pharmaceutica, priority 2009, dated 2014).

These compounds were tested against human orexin-2 receptor (Homo sapiens (Human), UniProt O43614) (assay: Human orexin 2 receptor radioligand binding ([3H]-EMPA competition)). Conditions: HEK293 cells stably expressing human orexin-2 receptor; [3H]-EMPA 5 nM final; apparent Ki=IC50/(1+C/Kd), Kd=2 nM; read-out: OR 2 Ki.
Chain of human orexin-2 receptor (O43614 whole entry): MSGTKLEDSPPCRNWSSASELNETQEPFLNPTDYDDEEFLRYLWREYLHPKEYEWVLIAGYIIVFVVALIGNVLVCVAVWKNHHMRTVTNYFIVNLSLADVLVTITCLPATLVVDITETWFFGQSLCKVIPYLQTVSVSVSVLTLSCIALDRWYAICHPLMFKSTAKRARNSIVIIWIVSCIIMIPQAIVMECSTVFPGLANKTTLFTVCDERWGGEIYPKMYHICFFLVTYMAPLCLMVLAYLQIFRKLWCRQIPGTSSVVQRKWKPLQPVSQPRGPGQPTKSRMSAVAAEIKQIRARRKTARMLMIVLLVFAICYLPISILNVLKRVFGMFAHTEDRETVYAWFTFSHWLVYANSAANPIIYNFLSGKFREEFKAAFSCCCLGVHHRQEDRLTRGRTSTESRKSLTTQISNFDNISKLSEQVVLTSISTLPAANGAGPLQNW

Compound	Ki
Cc1cc(N2CC3CN(C(=O)c4ccccc4-n4nccn4)CC3C2)nc(N(C)C)n1 (centres unmarked) [Example 120, N,N,4-Trimethyl-6-[5-{[2-(2H-1,2,3-triazol-2-yl)phenyl]carbonyl}hexahydropyrrolo[3,4-c]pyrrol-2(1H)-yl]pyrimidin-2-amine]	71 nM
Cc1cc(C)nc(N2CC3CN(C(=O)c4cnoc4-c4ccccc4)CC3C2)n1 (centres unmarked) [Example 80, 2-(4,6-Dimethylpyrimidin-2-yl)-5-[(5-phenylisoxazol-4-yl)carbonyl]octahydro-pyrrolo[3,4-c]pyrrole]	314 nM
COc1ccc(C(=O)N2CC3CN(c4ncc(Cl)c(C)n4)CC3C2)c(-n2nccn2)c1 (centres unmarked) [Example 378, 2-(5-Chloro-4-methylpyrimidin-2-yl)-5-{[4-methoxy-2-(2H-1,2,3-triazol-2-yl)phenyl]carbonyl}octahydropyrrolo[3,4-c]pyrrole]	10 nM
COc1ccc(C(=O)N2CC3CN(c4ncc(F)c(C)n4)CC3C2)c(-n2nccn2)c1 (centres unmarked) [Example 377, 2-(5-Fluoro-4-methylpyrimidin-2-yl)-5-{[4-methoxy-2-(2H-1,2,3-triazol-2-yl)phenyl]carbonyl}octahydropyrrolo[3,4-c]pyrrole]	17 nM
CCOc1ccc2ccccc2c1C(=O)N1CC2CN(c3nccc(OC)n3)CC2C1 (centres unmarked) [Example 56, 2-[(2-Ethoxynaphthalen-1-yl)carbonyl]-5-(4-methoxypyrimidin-2-yl)octahydropyrrolo[3,4-c]pyrrole]	80 nM
CCOc1ccc2ccccc2c1C(=O)N1CC2CN(c3nc(C)cc(C)n3)CC2C1 (centres unmarked) [Example 77, 2-(4,6-Dimethylpyrimidin-2-yl)-5-[(2-ethoxynaphthalen-1-yl)carbonyl]octahydro-pyrrolo[3,4-c]pyrrole]	25 nM
CCOc1cccc(N2CC3CN(C(=O)c4ccccc4-n4nccn4)CC3C2)n1 (centres unmarked) [Example 147, 2-(6-Ethoxypyridin-2-yl)-5-{[2-(2H-1,2,3-triazol-2-yl)phenyl]carbonyl}octahydro pyrrolo[3,4-c]pyrrole]	85 nM
O=C(c1ccccc1-c1ccccc1)N1CC2CN(c3nccc(-c4ccco4)n3)CC2C1 (centres unmarked) [Example 31, 2-(Biphenyl-2-ylcarbonyl)-5-(4-furan-2-ylpyrimidin-2-yl)octahydropyrrolo[3,4-c]pyrrole]	425 nM
COc1ccc(C(=O)N2CC3CN(c4ncc(C)c(C)n4)CC3C2)c(-n2nccn2)c1 (centres unmarked) [Example 380, 2-(4,5-Dimethylpyrimidin-2-yl)-5-{[4-methoxy-2-(2H-1,2,3-triazol-2-yl)phenyl]carbonyl}octahydropyrrolo[3,4-c]pyrrole]	15 nM
O=C(c1ccccc1-c1cccs1)N1CC2CN(c3nc4ccccc4o3)CC2C1 (centres unmarked) [Example 139, 2-{5-[(2-Thiophen-2-ylphenyl)carbonyl]hexahydropyrrolo[3,4-c]pyrrol-2(1H)-yl}-1,3-benzoxazole]	63 nM
Cc1cc(C)nc(N2CC3CN(C(=O)c4occc4C)CC3C2)n1 (centres unmarked) [Example 352, (5-(4,6-Dimethylpyrimidin-2-yl)hexahydropyrrolo[3,4-c]pyrrol-2(1H)-yl)(3-methylfuran-2-yl)methanone]	10000 nM
Cc1cnc(N2CC3CN(C(=O)c4ccccc4-c4ccccc4)CC3C2)c(C)n1 (centres unmarked) [Example 64, 2-(Biphenyl-2-ylcarbonyl)-5-(3,5-dimethylpyrazin-2-yl)octahydropyrrolo[3,4-c]pyrrole]	579 nM
Cc1cc(N(C)C)nc(N2CC3CN(C(=O)c4cc(F)ccc4-n4nccn4)CC3C2)n1 (centres unmarked) [Example 124, 2-[5-{[5-Fluoro-2-(2H-1,2,3-triazol-2-yl)phenyl]carbonyl}hexahydropyrrolo[3,4-c]pyrrol-2(1H)-yl]-N,N,6-trimethylpyrimidin-4-amine]	422 nM
Cc1cc(C)nc(N2CC3CN(C(=O)c4ccc(F)cc4-c4ncccn4)CC3C2)n1 (centres unmarked) [Example 231, (5-(4,6-Dimethylpyrimidin-2-yl)hexahydropyrrolo[3,4-c]pyrrol-2(1H)-yl)(4-fluoro-2-(pyrimidin-2-yl)phenyl)methanone]	68 nM
Cc1ccnc(N2CC3CN(C(=O)c4ccccc4-c4ccccc4)CC3C2)n1 (centres unmarked) [Example 174, 2-(Biphenyl-2-ylcarbonyl)-5-(4-methylpyrimidin-2-yl)octahydropyrrolo[3,4-c]pyrrole]	729 nM
Cc1cc(C)nc(N2CC3CN(C(=O)c4cccnc4-c4ccnn4C4CCCCO4)CC3C2)n1 (centres unmarked) [Example 236, (5-(4,6-Dimethylpyrimidin-2-yl)hexahydropyrrolo[3,4-c]pyrrol-2(1H)-yl)(2-(1-(tetrahydro-2H-pyran-2-yl)-1H-pyrazol-5-yl)pyridin-3-yl)methanone]	10000 nM
Cc1cc(C)c(C(=O)N2CC3CN(c4nc(C)cc(C)n4)CC3C2)c(C)c1 (centres unmarked) [Example 270, (5-(4,6-Dimethylpyrimidin-2-yl)hexahydropyrrolo[3,4-c]pyrrol-2(1H)-yl)(mesityl)methanone]	1030 nM
Cc1cc(C)nc(N2CC3CN(C(=O)c4cccc(F)c4F)CC3C2)n1 (centres unmarked) [Example 271, (2,3-Difluorophenyl)(5-(4,6-dimethylpyrimidin-2-yl)hexahydropyrrolo[3,4-c]pyrrol-2(1H)-yl)methanone]	5000 nM

Compound	Ki
COc1ccnc(N2CC3CN(C(=O)c4c(OC)ccc5ccccc45)CC3C2)n1 (centres unmarked) [Example 60, 2-[(2-Methoxynaphthalen-1-yl)carbonyl]-5-(4-methoxypyrimidin-2-yl)octahydropyrrolo[3,4-c]pyrrole]	173 nM
Cc1cc(C)nc(N2CC3CN(C(=O)c4cc(F)ccc4C)CC3C2)n1 (centres unmarked) [Example 226, 2-(4,6-Dimethylpyrimidin-2-yl)-5-[(5-fluoro-2-methylphenyl)carbonyl]octahydropyrrolo[3,4-c]pyrrole]	836 nM
Cc1nccc(N2CC3CN(C(=O)c4ccccc4-n4nccn4)CC3C2)n1 (centres unmarked) [Example 210, [5-(2-Methyl-pyrimidin-4-yl)-hexahydro-pyrrolo[3,4-c]pyrrol-2-yl]-(2-[1,2,3]triazol-2-yl-phenyl)-methanone]	3000 nM
Cc1ccnc(-c2ccc(F)cc2C(=O)N2CC3CN(c4nc(C)cc(C)n4)CC3C2)c1 (centres unmarked) [Example 400, (5-(4,6-Dimethylpyrimidin-2-yl)hexahydropyrrolo[3,4-c]pyrrol-2(1H)-yl)(5-fluoro-2-(4-methylpyridin-2-yl)phenyl)methanone]	510 nM
CN(C)c1cc(N2CC3CN(C(=O)c4c(F)cccc4-n4nccn4)CC3C2)nc(C(F)(F)F)n1 (centres unmarked) [Example 3, 6-[5-{[2-Fluoro-6-(2H-1,2,3-triazol-2-yl)phenyl]carbonyl}hexahydropyrrolo[3,4-c]pyrrol-2(1H)-yl]-N,N-dimethyl-2-(trifluoromethyl)pyrimidin-4-amine]	42 nM
Cc1cnc(C)c(N2CC3CN(C(=O)c4ccccc4-c4cccs4)CC3C2)n1 (centres unmarked) [Example 63, 2-(3,6-Dimethylpyrazin-2-yl)-5-[(2-thiophen-2-ylphenyl)carbonyl]octahydro-pyrrolo[3,4-c]pyrrole]	44 nM
Cc1cnc(C)c(N2CC3CN(C(=O)c4ccccc4-c4ncn[nH]4)CC3C2)n1 (centres unmarked) [Example 213, [5-(3,6-Dimethyl-pyrazin-2-yl)-hexahydro-pyrrolo[3,4-c]pyrrol-2-yl]-[2-(2H-[1,2,4]triazol-3-yl)-phenyl]-methanone]	56 nM
COc1cccc(N2CC3CN(C(=O)c4ccccc4-c4cccs4)CC3C2)n1 (centres unmarked) [Example 137, 2-(6-Methoxypyridin-2-yl)-5-[(2-thiophen-2-ylphenyl)carbonyl]octahydro pyrrolo[3,4-c]pyrrole]	50 nM
COc1ccnc(N2CC3CN(C(=O)c4c(C)ccc5ccccc45)CC3C2)n1 (centres unmarked) [Example 49, 2-(4-Methoxypyrimidin-2-yl)-5-[(2-methylnaphthalen-1-yl)carbonyl]octahydro-pyrrolo[3,4-c]pyrrole]	78 nM
Cc1ccc(-c2ncccn2)c(C(=O)N2CC3CN(c4cc(C)nc(C(F)(F)F)n4)CC3C2)c1 (centres unmarked) [Example 112, 2-[(5-Methyl-2-pyrimidin-2-ylphenyl)carbonyl]-5-[6-methyl-2-(trifluoromethyl)pyrimidin-4-yl]octahydropyrrolo[3,4-c]pyrrole]	95 nM
Cc1ccoc1C(=O)N1CC2CN(c3cnc4ccccc4n3)CC2C1 (centres unmarked) [Example 355, (3-Methylfuran-2-yl)(5-(quinoxalin-2-yl)hexahydropyrrolo[3,4-c]pyrrol-2(1H)-yl)methanone]	10000 nM
COc1ccnc(N2CC3CN(C(=O)c4cccc5ccccc45)CC3C2)n1 (centres unmarked) [Example 58, 2-(4-Methoxypyrimidin-2-yl)-5-(naphthalen-1-ylcarbonyl)octahydropyrrolo[3,4-c]pyrrole]	227 nM
O=C(c1cccc(F)c1-c1ncccn1)N1CC2CN(c3cnc4cc(F)c(F)cc4n3)CC2C1 (centres unmarked) [Example 387, (5-(6,7-Difluoroquinoxalin-2-yl)hexahydropyrrolo[3,4-c]pyrrol-2(1H)-yl)(3-fluoro-2-(pyrimidin-2-yl)phenyl)methanone]	16 nM
COc1cc(N2CC3CN(C(=O)c4ccc(F)cc4-n4nccn4)CC3C2)nc(N(C)C)n1 (centres unmarked) [Example 7, 4-[5-{[4-Fluoro-2-(2H-1,2,3-triazol-2-yl)phenyl]carbonyl}hexahydropyrrolo[3,4-c]pyrrol-2(1H)-yl]-6-methoxy-N,N-dimethylpyrimidin-2-amine]	42 nM
Cc1ccc2nc(N3CC4CN(C(=O)c5ccccc5-c5ccccc5)CC4C3)sc2c1 (centres unmarked) [Example 188, Biphenyl-2-yl-[5-(6-methyl-benzothiazol-2-yl)-hexahydro-pyrrolo[3,4-c]pyrrol-2-yl]-methanone]	2610 nM
Cc1cc(C)nc(N2CC3CN(C(=O)c4cc(F)ccc4-c4ccccn4)CC3C2)n1 (centres unmarked) [Example 403, (5-(4,6-Dimethylpyrimidin-2-yl)hexahydropyrrolo[3,4-c]pyrrol-2(1H)-yl)(5-fluoro-2-(pyridin-2-yl)phenyl)methanone]	180 nM
Cc1cc(C)nc(N2CC3CN(C(=O)c4cc(F)ccc4-c4ncccn4)CC3C2)n1 (centres unmarked) [Example 74, 2-(4,6-Dimethylpyrimidin-2-yl)-5-[(5-fluoro-2-pyrimidin-2-ylphenyl)carbonyl]octahydropyrrolo[3,4-c]pyrrole]	14 nM
